According to patent publication US5043332A, “Novel 11β-substituted -19-nor-steriods” (priority 1981, dated 1991):

Experiments:
[1] = molecular target: T1, Androgen receptor of prostate of rats (Rattus norvegicus, UniProt P15207); experiment: Androgen receptor binding (displacement of tritiated product P); details: conclusion
T1 construct: The prostates were removed, weighed and homogenized at 0° C; from tissue; host or cells: rat prostate, 105,000 g supernatant (castrated male Sprague-Dawley rats)
T1 sequence (P15207 1-902): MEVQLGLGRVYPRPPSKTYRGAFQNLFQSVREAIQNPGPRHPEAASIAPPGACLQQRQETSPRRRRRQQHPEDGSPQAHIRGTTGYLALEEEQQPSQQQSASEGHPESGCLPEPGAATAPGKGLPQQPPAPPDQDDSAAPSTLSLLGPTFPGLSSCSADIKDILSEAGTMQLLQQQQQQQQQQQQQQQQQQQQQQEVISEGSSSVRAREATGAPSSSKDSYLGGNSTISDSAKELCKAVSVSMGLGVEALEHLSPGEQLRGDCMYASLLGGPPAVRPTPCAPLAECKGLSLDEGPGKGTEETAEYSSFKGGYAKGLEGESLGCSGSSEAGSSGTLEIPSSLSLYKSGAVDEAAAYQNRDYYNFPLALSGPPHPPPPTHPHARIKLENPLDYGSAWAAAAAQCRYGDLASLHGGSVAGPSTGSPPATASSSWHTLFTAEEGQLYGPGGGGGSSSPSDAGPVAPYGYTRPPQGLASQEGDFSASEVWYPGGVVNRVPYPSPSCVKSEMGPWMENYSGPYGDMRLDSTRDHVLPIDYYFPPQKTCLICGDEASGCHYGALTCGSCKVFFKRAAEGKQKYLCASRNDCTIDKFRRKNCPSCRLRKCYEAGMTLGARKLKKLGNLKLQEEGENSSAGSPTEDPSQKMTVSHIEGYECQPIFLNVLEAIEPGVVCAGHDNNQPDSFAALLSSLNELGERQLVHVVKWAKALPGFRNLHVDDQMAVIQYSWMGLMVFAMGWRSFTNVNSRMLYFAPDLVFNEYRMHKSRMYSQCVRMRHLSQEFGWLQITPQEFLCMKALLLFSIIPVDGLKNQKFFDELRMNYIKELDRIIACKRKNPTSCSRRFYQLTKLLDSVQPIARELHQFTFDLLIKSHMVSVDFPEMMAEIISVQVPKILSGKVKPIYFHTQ
Description: B. Androgen receptor of prostate of rats
Male Sprague-Dawley EPOS rats weighing of 160 to 200 g were castrated and 24 hours later, the animals were killed. The prostates were removed, weighed and homogenized at 0° C. with a polytetrafluoroethylene-glass Potter with a buffered TS solution (Tris, 10 mM, 0.25M Saccharose, HCl-pH of 7.4) using 1 g of tissue per 5 ml of TS. The homogenate was then ultracentrifuged at 105,000 g for 60 […] (T) of product P or 17α-methyl-Δ^4,9,11 -estratriene-17β-ol-3-one in the presence of increasing concentration (0-1,000×10^-9 M) of either cold P, cold testosterone or the test compound. The concentration of tied tritiated (B) was measured for each incubate by the technique of adsorption on carbon-dextran.
(§1) The calculation of the relative affinity of […] (ARL) was identical for all of the above receptor tests. One traced the following two curves: the percentage of tied tritiated hormone B/T as a function of the logarithm of the cold hormone concentration and B/T as a function of the logarithm of the concentration of the cold test product. One determined the line of the equation. [formula]
(§2) The intersection of the I50 line and the curves permits one to determine the concentrations of the cold hormone of the reference (CH) and the cold test compound (CX) which inhibit by 50% the tieing of tritiated hormone with the receptor. The relative affinity of tieing (ARL) of the test product was determined by the equation: [formula]

[2] = test system: thymocytes of surrenalectomized rats; experiment: Antiglucocorticoidal activity, incorporation of tritiated uridine in thymocytes; type: cell-based; details: for opposition to the effect of dexamethasone on tritiated uridine incorporation (in words): with 5×10^-8 M dexamethasone
Description: III. Antiglucocorticoidal Activity
The test used was that of Dausse et al [Molecular Pharmacology, Vol. 13 (1977), p. 948-955] entitled "The relationship between glucocorticoid structure and effects upon thymocytes" for […] thymocytes. The thymocytes of surrenalectomized rats were incubated at 37° C. for 3 hours in a nutritive medium containing 5×10^-8 M of dexamethasone in the presence or absence of the test compound at different concentrations. Tritiated uridine was added and incubation was continued for one hour. The incubates were cooled and treated with a 5% trifluoroacetic acid solution and the mixture was filtered with Whatman GF/A paper. The filter was washed 3 times with a 5% trifluoroacetic acid solution and retained radioactivity on the filter was determined.

[3] = molecular target: T2, Progestogen receptor of the uterus of rabbits (Oryctolagus cuniculus, UniProt P06186); experiment: Progestogen receptor binding (displacement of tritiated product R); parameters: species or system rabbit; details: conclusion
T2 construct: The uterus was removed, weighed and homogenized at 0° C; from tissue; host or cells: rabbit uterus, 105,000 g supernatant (estradiol-primed immature rabbits)
T2 sequence (P06186 1-930): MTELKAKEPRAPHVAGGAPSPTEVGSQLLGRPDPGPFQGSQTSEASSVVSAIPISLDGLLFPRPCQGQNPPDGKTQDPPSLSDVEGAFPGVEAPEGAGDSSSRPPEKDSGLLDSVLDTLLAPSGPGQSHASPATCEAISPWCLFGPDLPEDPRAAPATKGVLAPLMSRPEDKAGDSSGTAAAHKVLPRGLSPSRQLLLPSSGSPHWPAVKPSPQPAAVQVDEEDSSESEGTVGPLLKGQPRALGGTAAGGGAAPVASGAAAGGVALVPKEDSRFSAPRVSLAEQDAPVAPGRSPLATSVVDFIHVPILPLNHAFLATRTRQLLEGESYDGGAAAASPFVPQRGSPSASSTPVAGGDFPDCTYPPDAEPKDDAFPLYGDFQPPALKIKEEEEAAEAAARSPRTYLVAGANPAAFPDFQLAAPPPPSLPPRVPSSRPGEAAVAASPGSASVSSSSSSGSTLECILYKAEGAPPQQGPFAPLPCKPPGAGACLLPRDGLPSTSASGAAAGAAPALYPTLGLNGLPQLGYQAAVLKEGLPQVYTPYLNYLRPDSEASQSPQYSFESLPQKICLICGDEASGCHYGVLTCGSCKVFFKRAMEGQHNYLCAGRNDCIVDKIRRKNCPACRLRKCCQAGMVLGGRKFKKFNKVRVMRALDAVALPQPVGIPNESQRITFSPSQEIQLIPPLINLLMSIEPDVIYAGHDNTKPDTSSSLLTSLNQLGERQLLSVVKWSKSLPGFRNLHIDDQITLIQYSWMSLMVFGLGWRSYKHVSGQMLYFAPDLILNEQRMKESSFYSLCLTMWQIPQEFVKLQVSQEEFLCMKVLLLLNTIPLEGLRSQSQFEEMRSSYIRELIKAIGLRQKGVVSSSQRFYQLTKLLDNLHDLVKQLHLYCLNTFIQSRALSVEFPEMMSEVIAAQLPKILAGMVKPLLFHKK
Description: C. Progestogen receptor of the uterus of rabbits
Immature rabbits weighing about 1 kg received a cutaneous application of 25 μg of estradiol and the animals were killed 5 days later. The uterus was removed, weighed and homogenized at 0° C. with a polytetrafluoroethylene-glass Potter, in a buffered TS solution [Tris 10. mM, 0.25M of saccharose, HCl-pH of 7.4] with 1 g of tissue per 50 ml of TS. […] The concentration of tied tritiated R (B) was then measured for each incubate by the technique of adsoprtion on carbon-dextran.
as §1, §2

SMILES | affinity for androgen receptors (in words) [1] | opposition to the effect of dexamethasone on tritiated uridine incorporation (in words) [2] | affinity for progestogen receptors (in words) [3] | inhibition at 1 µM ([2]; Rattus norvegicus, Thymocyte, second table, 5 × 10^-8 M dexamethasone + test product 10^-6 M, read-out: % of inhibition of effect of Dexamethasone) [%] | inhibition at 0.1 µM ([2]; Rattus norvegicus, Thymocyte, second table, 5 × 10^-8 M dexamethasone + test product 10^-7 M, read-out: % of inhibition of effect of Dexamethasone) [%] | inhibition at 0.01 µM ([2]; Rattus norvegicus, Thymocyte, second table, 5 × 10^-8 M dexamethasone + test product 10^-8 M, read-out: % of inhibition of effect of Dexamethasone) [%]
CC#C[C@]1(O)CC[C@H]2[C@@H]3CCc4cc(O)ccc4[C@H]3[C@@H](c3ccc(N(C)C)cc3)C[C@@]21C [Example 2, 11β-(4-dimethylaminophenyl)-17α-(prop-1-ynyl)-Δ^1,3,5(10) -estratriene-3,17β-diol] | slightly moderate affinity | opposed this effect | very remarkable affinity | – | – | –
C#CC[C@]1(O)CC[C@H]2[C@@H]3CCC4=CC(=O)CCC4=C3[C@@H](c3ccc(N(C)C)cc3)C[C@@]21C [Example 31, 11β-[4-(N,N-dimethylamino)-phenyl]-17α-(prop-2-ynyl)-Δ^4,9-estradiene-17β-ol-3-one] | slightly moderate affinity | opposed this effect | very remarkable affinity | 99 | 60 | 28
